From patent publication US6825230B2, “Spiro and dispiro 1,2,4-trixolane antimalarials” (Medicines for Malaria Venture MMV, priority 2002, dated 2004)

Columns and labels:
P. berghei ANKA strain [1] = assay: Onset of action and recrudescence experiment, single 100 mg/kg po; format: in vivo, Plasmodium berghei; conditions: single 100 mg/kg po (SSV) on day +3 post-infection; recrudescence = >5% parasitemia; followed up to 60 days; groups of five
Protocol: The onset of drug action was determined after a single fixed dose of 100 mg/kg (SSV vehicle) po to groups of five animals on day +3 post-infection (day 0).
(§1) Moro NMRI male mice (Fu Albino specific pathogen free) weighing 18±2 g were infected intravenously (i.v.) with 2×10^7 P. berghei ANKA strain-infected erythrocytes from donor mice on day 0 of the experiment. From donor mice with circa 30% parasitemia, heparinized blood was taken and diluted in physiological saline to 10^8 parasitized erythrocytes per ml. An aliquot (0.2 ml) of this suspension was injected i.v. into experimental and control groups of mice. […] Throughout the experiments, mice were kept in groups of three or five animals in Makrolon type II cages in an air-conditioned animal room at 22 to 23° C.

[2] = test system: ANKA strain of Plasmodium berghei; assay: Single dose ED50/ED90/ED99 determination in infected mice; format: in vivo; conditions: single dose po in SSV on day 1 post-infection; parasitemia day 3; nonlinear fitting
In short: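 Moro SPF or NMRI mice (three per group) infected with P. berghei ANKA were dosed once on day 1 post-infection in SSV (0.5% CMC, 0.5% benzyl alcohol, 0.4% Tween 80, 0.9% NaCl). Parasitemia reduction was scored on day 3; ED values (mg/kg) came from nonlinear fitting.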

[3] = test system: ANKA strain of P. berghei; assay: Single dose STI in vivo screen in infected mice; parameters: species or system Plasmodium berghei
P. berghei ANKA strain [4] = assay: Prophylactic activity, single 100 mg/kg po at various times before infection; format: in vivo, Plasmodium berghei
Protocol: as §1
Prophylactic activities of the compounds were compared after administering po single dose of 100 mg/kg to different groups of five animals at various times before infection. All groups including an untreated control group, were then infected at the same time. Parasitemia was determined for each animal on day 3 post-infection, and percent of reduction of the level of parasitemia compared to levels for animals given no drug is determined.

P. berghei ANKA strain [5] = assay: Divided 3x3 mg/kg and 3x1 mg/kg po doses in infected mice; format: in vivo, Plasmodium berghei; conditions: for Activity (%): percent reduction of parasitemia vs control on day 4
Protocol: as §1
(§2) They were administered per os (p.o.) in a total volume of 0.01 ml per gram of mouse. The activity of the compound was determined by a variety of methods outlined in subsequent sections. Survival time was also recorded, and survival to day 30 post-infection was considered to be a cure.
The second experiment consists of administration of divided 3×3 mg/kg and 3×1 mg/kg po doses administered on days 1, 2, and 3 post-infection. On day 4 post-infection, blood smears of all animals were prepared and stained with Giemsa. […] Compounds were administered orally in the SSV vehicle.

P. berghei ANKA strain [6] = assay: Divided 3x10 mg/kg vs single 1x30 mg/kg po dose in infected mice; format: in vivo, Plasmodium berghei
Protocol: as §1, §2
The first experiment conducted consisted of administration of a divided 3×10 mg/kg p.o. dose administered on days 1, 2, and 3 post-infection vs. a single 1×30 mg/kg po dose administered on day 1 post-infection. On day 4 post-infection, blood smears of all animals were prepared and stained with Giemsa. […] Compounds were administered orally in the SSV vehicle.

[7] = test system: Schistosoma mansoni 21-day-old schistosomules; assay: Effect on 21-day-old schistosomules in infected mice; format: in vivo; conditions: single 200 mg/kg per os, 21-day-old schistosomules; for % reduction of schistosomule growth at day 21 after per os application of 200 mg/kg, FWR (%): female worm reduction rate; for % reduction of schistosomule growth at day 21 after per os application of 200 mg/kg, TWR (%): total worm reduction rate
Protocol: Mice were infected with 100 Schistosoma mansoni cercariae on day 21 post-treatment. Each group was treated per os with trioxolanes at a single dose of 200 mg/kg. […] All groups were killed 4 weeks after treatment and the liver and intestine were removed and separated. The liver and intestine were compressed and alive male and female worms could be seen and counted. The effect of the compounds was evaluated by mean total and female worm burden.

[8] = test system: Schistosoma mansoni adult worms (49-day-old); assay: Effect on adult schistosomes (49-day-old) in infected mice; format: in vivo; conditions: for % reduction of adult worms growth at day 49 after per os application of 400 mg/kg, TWR (%) / Adult worms day 49, per os 400 mg/kg, DEAD WORM (%): single 400 mg/kg per os
Protocol: Mice were infected with 100 Schistosoma mansoni cercariae on day 49 post-treatment. Each group was treated per os with OZ compounds at single doses of 200, 400, and 600 mg/kg. Untreated mice served as the control. All groups were killed 4 weeks after treatment and the liver and intestine were removed and separated. The liver and intestine were compressed and alive male and female worms could be seen and counted.

[9] = 3 × 1 mg/kg p.o. SSV on days 1, 2, 3 post-infection
[10] = 3 × 3 mg/kg p.o. SSV on days 1, 2, 3 post-infection
[11] = 49-day-old adults, total worm reduction rate
[12] = percentage of dead worm in the liver

OC(c1cc(C(F)(F)F)nc2c(C(F)(F)F)cccc12)C1CCCCN1 (stereo not shown) [MFQ, mefloquine, reference compound]
Time of Recrudescence (P. berghei ANKA strain [1]): 28.0 days | ED50 [2]: 4.0 mg/kg | ED90 [2]: 5.4 mg/kg | ED99 [2]: 6.8 mg/kg | Activity (%) 3 mg/kg SSV po ([3]; single 3 mg/kg po in SSV, percent reduction in parasitemia on day 3): 9% | Survival (days) 10 mg/kg SSV po ([3]; single 10 mg/kg po in SSV, untreated 6-7 days): 17 days | Activity (%) 10 mg/kg SSV po ([3]; single 10 mg/kg po in standard suspending vehicle (SSV) on day 1 post-infection, percent reduction in parasitemia on day 3): 99.11% | Duration of prophylactic protection (P. berghei ANKA strain [4]; single 100 mg/kg po): 3 days | Prophylactic Activity (%) 24 h (P. berghei ANKA strain [4]; single 100 mg/kg po 24 h before infection, parasitemia reduction on day 3 post-infection): 100% | Prophylactic Activity (%) 48 h (P. berghei ANKA strain [4]; single 100 mg/kg po 48 h before infection, parasitemia reduction on day 3 post-infection): 99.92% | Prophylactic Activity (%) 72 h (P. berghei ANKA strain [4]; single 100 mg/kg po 72 h before infection, parasitemia reduction on day 3 post-infection): 99.97% | Prophylactic Activity (%) 0 h (P. berghei ANKA strain [4]; single 100 mg/kg po at 0 h, parasitemia reduction on day 3 post-infection): 100% | Survival (P. berghei ANKA strain [5]; [9]): 6.2 days | Activity (%) (P. berghei ANKA strain [5]; [9]): 2% | Survival (P. berghei ANKA strain [5]; [10]): 12 days | Activity (%) (P. berghei ANKA strain [5]; [10]): 98% | Cures 3 × 10 mg/kg p.o. SSV (P. berghei ANKA strain [6]; 10 mg/kg po on days 1, 2, 3, cure = survival to day 30 post-infection): 0/5 | Survival (days) 3 × 10 mg/kg p.o. SSV (P. berghei ANKA strain [6]; 10 mg/kg po on days 1, 2, 3 post-infection): 23.3 days | Activity (%) 3 × 10 mg/kg p.o. SSV (P. berghei ANKA strain [6]; 10 mg/kg po on days 1, 2, 3 post-infection, parasitemia reduction on day 4): 99.92% | Survival (days) 1 × 30 mg/kg p.o. SSV (P. berghei ANKA strain [6]; single 30 mg/kg po on day 1 post-infection): 20.3 days | Activity (%) 1 × 30 mg/kg p.o. SSV (P. berghei ANKA strain [6]; single 30 mg/kg po on day 1 post-infection, parasitemia reduction on day 4): 99.94% | Cures 1 × 30 mg/kg p.o. SSV (P. berghei ANKA strain [6]; single 30 mg/kg po, cure = survival to day 30 post-infection): 0/5

CC1(C)COC2(CCC3(CC2)OOC2(O3)C3CC4CC(C3)CC2C4)OC1 (stereo not shown) [OZ11]
% reduction of schistosomule growth at day 21 after per os application of 200 mg/kg, FWR (%) [7]: 84% | % reduction of schistosomule growth at day 21 after per os application of 200 mg/kg, TWR (%) [7]: 85% | Time of Recrudescence (P. berghei ANKA strain [1]): 22.2 days | ED90 [2]: 6.2 mg/kg | ED99 [2]: 8.2 mg/kg | % reduction of adult worms growth at day 49 after per os application of 400 mg/kg, TWR (%) [8, 11]: 16% | Adult worms day 49, per os 400 mg/kg, DEAD WORM (%) [8, 12]: 4%

O=C(O)CC1CCC2(CC1)OOC1(O2)C2CC3CC(C2)CC1C3 (stereo not shown) [OZ78]
% reduction of schistosomule growth at day 21 after per os application of 200 mg/kg, FWR (%) [7]: 87% | % reduction of schistosomule growth at day 21 after per os application of 200 mg/kg, TWR (%) [7]: 82% | Time of Recrudescence (P. berghei ANKA strain [1]): 11.2 days | ED90 [2]: 9.1 mg/kg | ED99 [2]: 17 mg/kg | % reduction of adult worms growth at day 49 after per os application of 200 mg/kg, TWR (%) ([8]; single 200 mg/kg per os, 49-day-old adults, total worm reduction rate): 24% | Adult worms day 49, per os 200 mg/kg, DEAD WORM (%) ([8]; single 200 mg/kg per os, percentage of dead worm in the liver): 29% | % reduction of adult worms growth at day 49 after per os application of 400 mg/kg, TWR (%) [8, 11]: 0% | Adult worms day 49, per os 400 mg/kg, DEAD WORM (%) [8, 12]: 17% | % reduction of adult worms growth at day 49 after per os application of 600 mg/kg, TWR (%) ([8]; single 600 mg/kg per os, 49-day-old adults, total worm reduction rate): 0% | Adult worms day 49, per os 600 mg/kg, DEAD WORM (%) ([8]; single 600 mg/kg per os, percentage of dead worm in the liver): 14%
